# Key:
# Format in all cases: physicochemical
# [1] = Light stability (25° C., 4500 Lux), content by HPLC peak area normalization
# Description: (§1) Follow tests are performed for the amorphous bulk pharmaceutical chemical of embodiment 1 and the crystal form A prepared in embodiment 2: • (1) Light stability: the test sample is placed in an environment having a temperature of 25° C. and a light condition of 4500 Lux for 5 days and 10 days, respectively, to test the stability of the crystal form. Samples are collected at the same point at 5th and 10th day to measure content by HPLC peak area normalization method. […] Samples are collected at the same point at 5th and 10th day to measure content by HPLC peak area normalization method. […] Samples are collected at the same point at 5th and 10th day to measure content by HPLC peak area normalization method.
# [2] = High-humidity stability (75% RH, 40° C.), content by HPLC peak area normalization
# Description: as §1
# [3] = High-temperature stability (60° C.), content by HPLC peak area normalization
# Description: as §1
# [4] = Hygroscopicity study by dynamic vapor sorption (DVS); conditions: 25° C.
# Description: • Model: BRUKER D8 DISCOVER (BRUKER, Germany) • Method: Cu target Ka, voltage: 40 KV, current: 40 mA, test angle: 3-45°, scanning step: 0.02, exposure time: 0.2 S, slit width of light pipe: 1 mm, slit width of detector: 2.7 mm. X-Ray Single Crystal Diffractometer SXRD • Model: BRUKER D8 QUEST (BRUKER, Germany) • Method: Cu target, voltage: 40 KV, current: 30 mA Differential Scanning Calorimeter DSC • Model: TA 250 (TA Instruments, US) • Method: heating at a rate of 10° C./min. Thermal Gravimetric Analysis TGA • Model: TA 550 (TA Instruments, US); • Method: heating at a rate of 10° C./min. Dynamic Vapor Sorption DVS • Model: DVS intrinsic (SMS, British); • Method: 25° C., relative humidity is stepped up at a rate of 10% per step, and the judgment standard is change in moisture content is <0.002% over a 10-minute period. Light Incubator • Model: MGC-100 (Shanghai Yiheng Scientific Instrument Co., Ltd.) Ultrasound Equipment • Model: KQ-3200 (Shanghai Alloy Ultrasonic Equipment Co., Ltd.) Programmable Temperature and Humidity Chamber for Drug Stability • Model: CMA-100C (Shanghai Puhan Precision Equipment Co., Ltd.) […]
# [5] = Hygroscopicity of compound of formula (I) prepared according to CN103819403B; conditions: within 10 min under a humidity of RH 45%
# Text: The inventors of the present invention prepared the compound of formula (I) according to the preparation method as described in CN103819403B, and carried out analysis. […] Especially, the prepared compound of formula (I) was found easy to decompose in environment of high temperature or high humidity or under strong lights, causing rapid decrease in the content of active ingredients. […] Therefore, a strict management would be required during use of the compound of formula (I), rendering the compound unsuitable for use as a bulk pharmaceutical chemical.
SMILES,Purity (%) after light stability test ([1]; 5 days) [%],Purity (%) after light stability test ([1]; 10 days) [%],Purity (%) after high-humidity stability test ([2]; 5 days) [%],Purity (%) after high-humidity stability test ([2]; 10 days) [%],Purity (%) after high-temperature stability test ([3]; 5 days) [%],Purity (%) after high-temperature stability test ([3]; 10 days) [%],weight change in each step of 10 min ([4]; each RH 10% step of 10 min),"weight increase due to moisture absorption ([4]; RH 0 to RH 90%, RH 10% per step, 10 min per step) [%]",weight increase because of hygroscopicity [5]
CN1Cc2c(Cl)cc(Cl)cc2[C@@H](c2cccc(S(=O)(=O)NCCOCCOCCNC(=O)NCCCCNC(=O)NCCOCCOCCNS(=O)(=O)c3cccc([C@@H]4CN(C)Cc5c(Cl)cc(Cl)cc54)c3)c2)C1 [crystal form A],91.78,89.07,98.52,98.56,98.64,98.72,less than 0.02%,,
CN1Cc2c(Cl)cc(Cl)cc2[C@@H](c2cccc(S(=O)(=O)NCCOCCOCCNC(=O)NCCCCNC(=O)NCCOCCOCCNS(=O)(=O)c3cccc([C@@H]4CN(C)Cc5c(Cl)cc(Cl)cc54)c3)c2)C1 [amorphous bulk pharmaceutical chemical],72.54,71.99,81.63,79.78,61.62,58.98,,7,
CN1Cc2c(Cl)cc(Cl)cc2[C@@H](c2cccc(S(=O)(=O)NCCOCCOCCNC(=O)NCCCCNC(=O)NCCOCCOCCNS(=O)(=O)c3cccc([C@@H]4CN(C)Cc5c(Cl)cc(Cl)cc54)c3)c2)C1 [compound of formula (I)],,,,,,,,,up to 2%
